Source: patent US12171870B2, “Contact lens packaging solutions” (ALCON INC., priority 2020, dated 2024)

Assays:
[1] = DMPC phosphate group; cited from earlier work
[2] = Dissolution of DMPC in HCl aqueous solution and nanoparticle formation by stirring; format: physicochemical
Source text: The present invention is partly based on the discovery that phosphatidylcholine nanoparticles can be formed in an aqueous solution free of an organic solvent by high energy treating the mixture of water insoluble phosphatidylcholine and an aqueous solution having a pH from 1 to 4. The present invention is also partly based on the discovery that at pH lower than pKa, the negative charge of phosphate group in phosphatidylcholine is neutralized through the protonation, which break static stacking in phosphatidylcholine crystal and improve solubility of phosphatidylcholine in an aqueous solution (scheme 1). For example, according to the experimental results of the present application, DMPC is dissolved (pKa 1.86) into 137 mM of HCl aqueous solution up to 10 mg/mL and induced aggregate and formed nanoparticles (˜30 nm) by stirring at room temperature for about 10 hours. After neutralized by NaOH, the nanoparticles were diluted to certain concentration in packing saline.
Method: DMPC was added into 135 mM of HCl and stirred overnight at room temperature to form nanoparticles (4-440 mg/mL). Then, pH was adjusted to 6-8 by 50% NaOH. The solution was diluted by PBS or Saline 14 to get certain concentration (0.1-2 mg/mL).

- solubility ([2]; 137 mM HCl aqueous solution, read-out: DMPC dissolved into HCl aqueous solution (solubility)): ≤ 10000 µg/mL
- Nanoparticle size ([2]; formed by stirring at room temperature for about 10 hours in 137 mM HCl): ~30 nm
Compound: CCCCCCCCCCCCCC(=O)OC[C@H](COP(=O)([O-])OCC[N+](C)(C)C)OC(=O)CCCCCCCCCCCCC [DMPC, Dimyristoylphosphatidylcholine]
- pKa [1]: 1.86
